From US9695155B2, “Herbicidal substituted pyrimidinyloxy benzene compounds” (E. I. DU PONT DE NEMOURS AND COMPANY, priority 2013, dated 2017)

Tests used:
nightshade = experiment: Test E preemergence; assay type: in vivo, Solanum ptycanthum; settings: for Nightshade plant response rating: scale 0 to 100 (0 no effect, 100 complete control); for Plant response rating, Nightshade: 125 g ai/ha, scale 0 to 100, 0 no effect, 100 complete control
Text: (§1) Seeds of plant species selected from corn (Zea mays), soybean (Glycine max), velvetleaf (Abutilon theophrasti), lambsquarters (Chenopodium album), wild poinsettia (Euphorbia heterophylla), palmer pigweed (Amaranthus palmeri), waterhemp (common waterhemp, Amaranthus rudis), surinam grass (Brachiaria decumbens), large (Lg) crabgrass (Digitaria sanguinalis), Brazilian crabgrass (Digitaria horizontalis), fall panicum (Panicum dichotomiflorum), giant foxtail (Setaria faberii), green foxtail (Setaria viridis), goosegrass (Eleusine indica), johnsongrass (Sorghum halepense), ragweed (common ragweed, Ambrosia elatior), barnyardgrass (Echinochloa crus-galli), sandbur (southern sandbur, Cenchrus echinatus), arrowleaf sida (Sida rhombifolia), Italian ryegrass (Lolium multiflorum), dayflower (Virginia (VA) dayflower, Commelina virginica), field bindweed (Convolvulus arvensis), morningglory (Ipomoea coccinea), nightshade (eastern black nightshade, Solanum ptycanthum), kochia (Kochia scoparia), yellow nutsedge (Cyperus esculentus), cocklebur (common cocklebur, Xanthium strumarium), smartweed (ladysthumb smartweed, and hairy beggarticks (Bidens pilosa), were planted into a silt loam soil and treated preemergence with test chemicals formulated in a non-phytotoxic solvent mixture which included a surfactant.
(§2) At the same time, plants from these crop and weed species and also horseweed (Canada horseweed, Conyza canadensis), waterhemp_RES1, (ALS & Triazine resistant common waterhemp, Amaranthus rudis), and waterhemp_RES2, (ALS & HPPD resistant common waterhemp, Amaranthus rudis) were planted in pots containing Redi-Earth® planting medium (Scotts Company, 14111 Scottslawn Road, Marysville, Ohio 43041) comprising spaghnum peat moss, vermiculite, wetting agent and starter nutrients were treated with postemergence applications of test chemicals formulated in the same manner. Plants ranged in height from 2 to 18 cm for postemergence treatments (1- to 4-leaf stage). Treated plants and controls were maintained in a greenhouse for 14 to 21 days, after which time all species were compared to controls and visually evaluated. Plant response ratings, summarized in Table E, are based on a scale of 0 to 100 where 0 is no effect and 100 is complete control. A dash (-) response means no test result.

goosegrass = experiment: Test E preemergence; assay type: in vivo, Eleusine indica; settings: for Goosegrass plant response rating: scale 0 to 100 (0 no effect, 100 complete control); for Plant response rating, Goosegrass: 125 g ai/ha, scale 0 to 100, 0 no effect, 100 complete control
Text: as §1, §2

hairy beggarticks = experiment: Test E preemergence; assay type: in vivo, Bidens pilosa; settings: for Beggarticks plant response rating: scale 0 to 100 (0 no effect, 100 complete control); for Plant response rating, Beggarticks: scale 0 to 100, 0 no effect, 100 complete control
Text: as §1, §2

barnyardgrass = experiment: Test E preemergence; assay type: in vivo, Echinochloa crus-galli; settings: for Barnyardgrass plant response rating: scale 0 to 100 (0 no effect, 100 complete control); for Plant response rating, Barnyardgrass: scale 0 to 100, 0 no effect, 100 complete control
Text: as §1, §2

giant foxtail = experiment: Test E preemergence; assay type: in vivo, Setaria faberii; settings: for Foxtail, Giant plant response rating: scale 0 to 100 (0 no effect, 100 complete control); for Plant response rating, Foxtail, Giant: 125 g ai/ha, scale 0 to 100, 0 no effect, 100 complete control
Text: as §1, §2

surinam grass = experiment: Test E preemergence; assay type: in vivo, Brachiaria decumbens; settings: for Surinam Grass plant response rating: scale 0 to 100 (0 no effect, 100 complete control); for Plant response rating, Surinam Grass: 125 g ai/ha, scale 0 to 100, 0 no effect, 100 complete control
Text: as §1, §2

green foxtail = experiment: Test E preemergence; assay type: in vivo, Setaria viridis; settings: for Foxtail, Green plant response rating: scale 0 to 100 (0 no effect, 100 complete control); for Plant response rating, Foxtail, Green: 125 g ai/ha, scale 0 to 100, 0 no effect, 100 complete control
Text: as §1, §2

sandbur = experiment: Test E preemergence; assay type: in vivo, Cenchrus echinatus; settings: for Sandbur plant response rating: scale 0 to 100 (0 no effect, 100 complete control); for Plant response rating, Sandbur: 125 g ai/ha, scale 0 to 100, 0 no effect, 100 complete control
Text: as §1, §2

arrowleaf sida [1] = experiment: Test E preemergence; assay type: in vivo, Sida rhombifolia; settings: for Arrowleaf Sida plant response rating: scale 0 to 100 (0 no effect, 100 complete control); for Plant response rating, Arrowleaf Sida: scale 0 to 100, 0 no effect, 100 complete control
Text: as §1, §2

wild poinsettia = experiment: Test E preemergence; assay type: in vivo, Euphorbia heterophylla; settings: for Poinsettia, Wild plant response rating: scale 0 to 100 (0 no effect, 100 complete control); for Plant response rating, Poinsettia, Wild: 125 g ai/ha, scale 0 to 100, 0 no effect, 100 complete control
Text: as §1, §2

arrowleaf sida [2] = experiment: Test E postemergence; assay type: in vivo, Sida rhombifolia
Text: as §1, §2

[3] = Postemergence, 31 g ai/ha, scale 0 to 100
[4] = Postemergence, 62 g ai/ha, scale 0 to 100
[5] = Postemergence, 125 g ai/ha, scale 0 to 100
[6] = postemergence, 8 g ai/ha, scale 0 to 100, 0 no effect, 100 complete control
[7] = postemergence, 16 g ai/ha, scale 0 to 100, 0 no effect, 100 complete control
[8] = Sida rhombifolia, post-emergence, Postemergence, 31 g ai/ha, scale 0 to 100, read-out: Plant response rating, Arrowleaf Sida
[9] = Sida rhombifolia, post-emergence, Postemergence, 62 g ai/ha, scale 0 to 100, read-out: Plant response rating, Arrowleaf Sida
[10] = Sida rhombifolia, post-emergence, Postemergence, 125 g ai/ha, scale 0 to 100, read-out: Plant response rating, Arrowleaf Sida
[11] = Sida rhombifolia, post-emergence, postemergence, 16 g ai/ha, scale 0 to 100, 0 no effect, 100 complete control, read-out: Plant response rating, Arrowleaf Sida

Fc1cnc(Oc2cccc(C(F)F)c2-n2cc(C(F)(F)F)cn2)nc1 [Compound 164]
Nightshade plant response rating (nightshade; 31 g ai/ha): 50 | Nightshade plant response rating (nightshade; 62 g ai/ha): 80 | Plant response rating, Nightshade (nightshade): 95 | Goosegrass plant response rating (goosegrass; 31 g ai/ha): 5 | Goosegrass plant response rating (goosegrass; 62 g ai/ha): 20 | Plant response rating, Goosegrass (goosegrass): 75 | Beggarticks plant response rating (hairy beggarticks; 16 g ai/ha, preemergence): 0 | Beggarticks plant response rating (hairy beggarticks; 31 g ai/ha, preemergence): 0 | Beggarticks plant response rating (hairy beggarticks; 62 g ai/ha, preemergence): 20 | Plant response rating, Beggarticks (hairy beggarticks; preemergence, 125 g ai/ha): 20 | Barnyardgrass plant response rating (barnyardgrass; 16 g ai/ha, preemergence): 0 | Barnyardgrass plant response rating (barnyardgrass; 31 g ai/ha, preemergence): 0 | Barnyardgrass plant response rating (barnyardgrass; 62 g ai/ha, preemergence): 0 | Plant response rating, Barnyardgrass (barnyardgrass; preemergence, 125 g ai/ha): 65 | Foxtail, Giant plant response rating (giant foxtail; 16 g ai/ha): 0 | Foxtail, Giant plant response rating (giant foxtail; 31 g ai/ha): 20 | Foxtail, Giant plant response rating (giant foxtail; 62 g ai/ha): 60 | Plant response rating, Foxtail, Giant (giant foxtail): 95 | Surinam Grass plant response rating (surinam grass; 31 g ai/ha): 0 | Surinam Grass plant response rating (surinam grass; 62 g ai/ha): 20 | Plant response rating, Surinam Grass (surinam grass): 20 | Foxtail, Green plant response rating (green foxtail; 16 g ai/ha): 0 | Foxtail, Green plant response rating (green foxtail; 31 g ai/ha): 25 | Foxtail, Green plant response rating (green foxtail; 62 g ai/ha): 60 | Plant response rating, Foxtail, Green (green foxtail): 100 | Sandbur plant response rating (sandbur; 31 g ai/ha): 0 | Sandbur plant response rating (sandbur; 62 g ai/ha): 0 | Plant response rating, Sandbur (sandbur): 10 | Arrowleaf Sida plant response rating (arrowleaf sida [1]; 16 g ai/ha, preemergence): 40 | Arrowleaf Sida plant response rating (arrowleaf sida [1]; 31 g ai/ha, preemergence): 100 | Arrowleaf Sida plant response rating (arrowleaf sida [1]; 62 g ai/ha, preemergence): 100 | Plant response rating, Arrowleaf Sida (arrowleaf sida [1]; preemergence, 125 g ai/ha): 100 | Poinsettia, Wild plant response rating (wild poinsettia; 31 g ai/ha): 0 | Poinsettia, Wild plant response rating (wild poinsettia; 62 g ai/ha): 5 | Plant response rating, Poinsettia, Wild (wild poinsettia): 30

FC(F)(F)c1cnn(-c2c(Br)cccc2Oc2ncc(Cl)cn2)c1 [Compound 191]
Plant response rating, Arrowleaf Sida (arrowleaf sida [2]; [3]): 70 | Plant response rating, Arrowleaf Sida (arrowleaf sida [2]; [4]): 70 | Plant response rating, Arrowleaf Sida (arrowleaf sida [2]; [5]): 100 | Plant response rating, Arrowleaf Sida (arrowleaf sida [2]; [6]): 50 | Plant response rating, Arrowleaf Sida (arrowleaf sida [2]; [7]): 60

Clc1cnc(Oc2cccc(Cl)c2-n2cc(I)cn2)nc1 [Compound 181]
Plant response rating, Arrowleaf Sida (arrowleaf sida [2]; [3]): 75 | Plant response rating, Arrowleaf Sida (arrowleaf sida [2]; [4]): 70 | Plant response rating, Arrowleaf Sida (arrowleaf sida [2]; [5]): 95 | Plant response rating, Arrowleaf Sida (arrowleaf sida [2]; [7]): 60

N#Cc1cccc(Oc2ncc(F)cn2)c1-n1cc(C(F)(F)F)cn1 [Compound 79, 3-[(5-fluoro-2-pyrimidinyl)oxy]-2-[4-(trifluoromethyl)-1H-pyrazol-1-yl]benzonitrile]
pest or weed control at 31 g/ha (arrowleaf sida [2]; [8]): 75% | pest or weed control at 62 g/ha (arrowleaf sida [2]; [9]): 85% | pest or weed control at 125 g/ha (arrowleaf sida [2]; [10]): 98% | pest or weed control at 16 g/ha (arrowleaf sida [2]; [11]): 65%

Cc1cnc(Oc2cccc(C#N)c2-n2cc(C#N)cn2)nc1 [Compound 90]
Nightshade plant response rating (nightshade; 16 g ai/ha): 10 | Nightshade plant response rating (nightshade; 31 g ai/ha): 10 | Nightshade plant response rating (nightshade; 62 g ai/ha): 80 | Plant response rating, Nightshade (nightshade): 80 | Goosegrass plant response rating (goosegrass; 16 g ai/ha): 0 | Goosegrass plant response rating (goosegrass; 31 g ai/ha): 0 | Goosegrass plant response rating (goosegrass; 62 g ai/ha): 5 | Plant response rating, Goosegrass (goosegrass): 50 | Beggarticks plant response rating (hairy beggarticks; 16 g ai/ha, preemergence): 0 | Beggarticks plant response rating (hairy beggarticks; 31 g ai/ha, preemergence): 5 | Plant response rating, Beggarticks (hairy beggarticks; Preemergence, 62 g ai/ha): 10 | Plant response rating, Beggarticks (hairy beggarticks; preemergence, 125 g ai/ha): 30 | Barnyardgrass plant response rating (barnyardgrass; 16 g ai/ha, preemergence): 0 | Barnyardgrass plant response rating (barnyardgrass; 31 g ai/ha, preemergence): 0 | Plant response rating, Barnyardgrass (barnyardgrass; Preemergence, 62 g ai/ha): 0 | Plant response rating, Barnyardgrass (barnyardgrass; preemergence, 125 g ai/ha): 40 | Foxtail, Giant plant response rating (giant foxtail; 16 g ai/ha): 0 | Foxtail, Giant plant response rating (giant foxtail; 31 g ai/ha): 0 | Foxtail, Giant plant response rating (giant foxtail; 62 g ai/ha): 15 | Plant response rating, Foxtail, Giant (giant foxtail): 50 | Surinam Grass plant response rating (surinam grass; 16 g ai/ha): 0 | Surinam Grass plant response rating (surinam grass; 31 g ai/ha): 0 | Surinam Grass plant response rating (surinam grass; 62 g ai/ha): 0 | Plant response rating, Surinam Grass (surinam grass): 0 | Foxtail, Green plant response rating (green foxtail; 16 g ai/ha): 0 | Foxtail, Green plant response rating (green foxtail; 31 g ai/ha): 0 | Foxtail, Green plant response rating (green foxtail; 62 g ai/ha): 10 | Plant response rating, Foxtail, Green (green foxtail): 50 | Sandbur plant response rating (sandbur; 16 g ai/ha): 0 | Sandbur plant response rating (sandbur; 31 g ai/ha): 0 | Sandbur plant response rating (sandbur; 62 g ai/ha): 0 | Plant response rating, Sandbur (sandbur): 0 | Arrowleaf Sida plant response rating (arrowleaf sida [1]; 16 g ai/ha, preemergence): 20 | Arrowleaf Sida plant response rating (arrowleaf sida [1]; 31 g ai/ha, preemergence): 50 | Plant response rating, Arrowleaf Sida (arrowleaf sida [1]; Preemergence, 62 g ai/ha): 75 | Plant response rating, Arrowleaf Sida (arrowleaf sida [1]; preemergence, 125 g ai/ha): 90 | Poinsettia, Wild plant response rating (wild poinsettia; 16 g ai/ha): 10 | Poinsettia, Wild plant response rating (wild poinsettia; 31 g ai/ha): 35 | Poinsettia, Wild plant response rating (wild poinsettia; 62 g ai/ha): 70 | Plant response rating, Poinsettia, Wild (wild poinsettia): 75

Clc1cnn(-c2ccccc2Oc2ncc(Br)cn2)c1 [Compound 5, 5-bromo-2-[2-(4-chloro-1H-pyrazol-1-yl)phenoxy]pyrimidine]
pest or weed control at 31 g/ha (arrowleaf sida [2]; [8]): 60% | pest or weed control at 62 g/ha (arrowleaf sida [2]; [9]): 70% | pest or weed control at 125 g/ha (arrowleaf sida [2]; [10]): 80% | pest or weed control at 250 g/ha (arrowleaf sida [2]; Sida rhombifolia, post-emergence, Postemergence, 250 g ai/ha, scale 0 to 100, read-out: Plant response rating, Arrowleaf Sida): 85% | pest or weed control at 16 g/ha (arrowleaf sida [2]; [11]): 60%

Clc1cnc(Oc2ccccc2-n2cc(Br)nn2)nc1 [Compound 223]
Plant response rating, Arrowleaf Sida (arrowleaf sida [2]; [3]): 70 | Plant response rating, Arrowleaf Sida (arrowleaf sida [2]; [4]): 80 | Plant response rating, Arrowleaf Sida (arrowleaf sida [2]; [5]): 90 | Plant response rating, Arrowleaf Sida (arrowleaf sida [2]; [6]): 50 | Plant response rating, Arrowleaf Sida (arrowleaf sida [2]; [7]): 60
